For five molecules, IC50, ΔTm and Kd results are on record in article PMC7718943, “In silico molecular target prediction unveils mebendazole as a potent MAPK14 inhibitor” (Molecular Oncology, 2020).

Where two headings read alike, the source gives them in different places.

The target of one experiment is T1, MAPK14 (MAPK14/p38α) (Homo sapiens, UniProt Q16539).
T1 construct: commercial enzyme of Promega kinase assay
Kind of experiment: ADP-Glo kinase assay. It counts as biochemical. Particulars: read-out: IC50 value (μM) ± SD / MAPK14. On the technique in general: ADP-Glo turns the ADP formed in a reaction into a luminescent signal.

Another experiment deals with T2, ERK2 (MAPK1) (Homo sapiens, UniProt P28482).
T2 construct: commercial enzyme of Promega kinase assay
T2 sequence (P28482 2-360): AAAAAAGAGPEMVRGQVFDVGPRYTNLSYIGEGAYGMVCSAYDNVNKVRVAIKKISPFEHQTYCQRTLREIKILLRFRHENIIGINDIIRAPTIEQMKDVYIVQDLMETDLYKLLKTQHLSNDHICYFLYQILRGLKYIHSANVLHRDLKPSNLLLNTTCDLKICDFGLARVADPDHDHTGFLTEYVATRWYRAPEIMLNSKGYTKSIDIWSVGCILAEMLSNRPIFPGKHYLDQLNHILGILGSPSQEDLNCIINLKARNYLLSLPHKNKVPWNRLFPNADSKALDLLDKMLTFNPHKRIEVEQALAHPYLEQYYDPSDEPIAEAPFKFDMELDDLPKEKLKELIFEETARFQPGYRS
Kind of experiment: ADP-Glo kinase assay. It counts as biochemical. The settings on record: read-out: IC50 value (μM) ± SD / ERK2. The source says:
ADP-Glo kinase assay on ERK2 (MAPK1)

Another experiment concerns the target T3, ABL1 (Homo sapiens, UniProt P00519).
T3 construct: commercial enzyme of Promega kinase assay
Kind of experiment: ADP-Glo kinase assay. It counts as biochemical.

For experiment [1], the target named is T4, MAPK14 (wild-type, His-tagged, pET28a) (Homo sapiens, UniProt Q16539).
T4 construct: wild type, pET28a vector, His tag conserved for ITC and TSA
T4 sequence (Q16539 whole entry): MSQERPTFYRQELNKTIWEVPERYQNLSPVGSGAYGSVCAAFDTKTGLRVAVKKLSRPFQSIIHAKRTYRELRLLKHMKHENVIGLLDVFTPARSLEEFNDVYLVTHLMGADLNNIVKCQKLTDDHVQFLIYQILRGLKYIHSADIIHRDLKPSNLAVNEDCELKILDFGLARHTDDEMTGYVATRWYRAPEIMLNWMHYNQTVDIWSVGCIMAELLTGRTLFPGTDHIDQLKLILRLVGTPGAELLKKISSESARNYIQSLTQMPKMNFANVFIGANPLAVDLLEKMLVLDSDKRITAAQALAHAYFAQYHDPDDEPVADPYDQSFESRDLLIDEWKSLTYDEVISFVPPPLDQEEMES
Kind of experiment: fluorescence thermal shift assay. It counts as binding. The settings on record: read-out: dTm.

Experiment [2] has as its target T4, MAPK14 (wild-type, His-tagged, pET28a). Kind of experiment: isothermal titration calorimetry. It counts as binding. Background: Isothermal titration calorimetry measures the heat released or taken up as one component is titrated into another.
[3] abbreviates: read-out: IC50 value (μM) ± SD / ABL1.

As a reminder, the Kd is the equilibrium constant for the complex coming apart. Higher therefore signals weaker binding.

T3 sequence (P00519 whole entry): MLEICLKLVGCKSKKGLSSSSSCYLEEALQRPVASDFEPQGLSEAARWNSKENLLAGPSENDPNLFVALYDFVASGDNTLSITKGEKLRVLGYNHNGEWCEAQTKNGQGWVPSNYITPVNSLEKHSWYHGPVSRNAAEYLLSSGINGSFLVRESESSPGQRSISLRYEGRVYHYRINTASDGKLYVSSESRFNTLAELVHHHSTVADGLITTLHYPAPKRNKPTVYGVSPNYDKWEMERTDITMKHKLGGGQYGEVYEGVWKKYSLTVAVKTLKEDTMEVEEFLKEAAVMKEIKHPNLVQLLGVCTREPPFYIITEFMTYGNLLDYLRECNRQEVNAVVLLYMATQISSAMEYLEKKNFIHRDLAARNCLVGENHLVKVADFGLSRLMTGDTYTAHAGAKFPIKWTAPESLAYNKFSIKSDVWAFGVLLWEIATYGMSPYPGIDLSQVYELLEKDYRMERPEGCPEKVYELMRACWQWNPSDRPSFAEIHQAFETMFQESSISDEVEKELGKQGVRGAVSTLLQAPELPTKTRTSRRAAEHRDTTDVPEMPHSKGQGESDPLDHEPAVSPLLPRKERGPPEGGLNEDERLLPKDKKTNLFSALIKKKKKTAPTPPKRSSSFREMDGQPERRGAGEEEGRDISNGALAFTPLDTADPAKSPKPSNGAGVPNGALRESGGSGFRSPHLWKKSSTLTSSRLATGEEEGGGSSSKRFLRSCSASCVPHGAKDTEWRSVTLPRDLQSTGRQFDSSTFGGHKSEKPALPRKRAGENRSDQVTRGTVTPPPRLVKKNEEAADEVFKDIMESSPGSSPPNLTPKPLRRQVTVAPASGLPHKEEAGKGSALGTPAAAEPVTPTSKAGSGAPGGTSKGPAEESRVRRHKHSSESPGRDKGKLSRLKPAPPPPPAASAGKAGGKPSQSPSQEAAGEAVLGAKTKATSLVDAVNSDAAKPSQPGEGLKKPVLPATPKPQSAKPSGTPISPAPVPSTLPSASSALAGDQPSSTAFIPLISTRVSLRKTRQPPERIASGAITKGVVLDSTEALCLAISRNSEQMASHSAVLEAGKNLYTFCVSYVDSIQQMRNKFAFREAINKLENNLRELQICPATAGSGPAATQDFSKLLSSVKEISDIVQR
T1 sequence (Q16539 2-360): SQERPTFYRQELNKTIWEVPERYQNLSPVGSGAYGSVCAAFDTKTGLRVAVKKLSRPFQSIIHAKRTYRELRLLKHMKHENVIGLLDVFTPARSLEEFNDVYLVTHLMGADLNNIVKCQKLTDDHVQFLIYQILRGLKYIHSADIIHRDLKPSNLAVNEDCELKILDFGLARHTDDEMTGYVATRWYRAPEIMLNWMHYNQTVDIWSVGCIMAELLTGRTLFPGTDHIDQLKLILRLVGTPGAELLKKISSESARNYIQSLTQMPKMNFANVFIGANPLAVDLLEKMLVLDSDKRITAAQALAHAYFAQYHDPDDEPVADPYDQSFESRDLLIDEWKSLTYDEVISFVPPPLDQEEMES

With `CCCSc1ccc2nc(NC(=O)OC)[nH]c2c1` [Albendazole], the IC50 was above 50 µM at MAPK14 (MAPK14/p38α), 3.4 ± 1.5 µM on ERK2 (MAPK1) and 0.9 ± 0.6 µM at ABL1 (setting [3]).
Consider `COC(=O)Nc1nc2ccc(C(=O)c3cccs3)cc2[nH]1` [Nocodazole], for which the figures for the IC50 on MAPK14 (MAPK14/p38α), on ERK2 (MAPK1) and at ABL1 (read-out: IC50) were 2.8 ± 5.6 µM, 26.9 ± 16.2 µM and 0.078 ± 0.034 µM, respectively.
Regarding `COC(=O)Nc1nc2ccc(C(=O)c3ccccc3)cc2[nH]1` [Mebendazole], the ΔTm at 50 µM in experiment [1] is 3.7 °C. Moreover, the IC50 on ERK2 (MAPK1) came out at 24.7 ± 10.4 µM; on ABL1 (setting [3]), 0.35 ± 0.12 µM. In experiment [2], this molecule returned an equilibrium dissociation constant (Kd) of 1.27 ± 0.02 µM.
With `COC(=O)Nc1nc2cc(C(=O)c3ccc(F)cc3)ccc2[nH]1` [Flubendazole], the results for the IC50 at MAPK14 (MAPK14/p38α), at ERK2 (MAPK1) and at ABL1 (setting [3]) were 5.5 ± 2.7 µM, 15.9 ± 8 µM and 0.11 ± 0.05 µM, respectively.
On the same counts, the results for `COC(=O)Nc1nc2ccc(Sc3ccccc3)cc2[nH]1` [Fenbendazole] are 10.7 ± 4.9 µM, above 50 µM and 0.19 ± 0.07 µM.
